In ChEMBL document CHEMBL4831477, “Structure-Enabled Discovery of Novel Macrocyclic Inhibitors Targeting Glutaminase 1 Allosteric Binding Site” (J Med Chem, 2021):

How the values were obtained:
[1] = Clearance in Sprague-Dawley rat at 200 mg/kg, po measured upto 72 hrs by LC-MS/MS analysis; type: ADME, organism-based; details: Sprague-Dawley, in vivo
[2] = system: HCT-116; assay: Antitumor activity against human HCT-116 cells xenografted in BALB/c nude mouse assessed as tumor growth inhibition at 200 mg/kg, po administered twice daily measured after 28 days; type: functional; details: time 28 day
[3] = Metabolic stability in mouse liver microsomes assessed as half life at 10 uM preincubated for 5 mins followed by NADPH addition by LC-MS/MS analysis; type: ADME, Microsome
[4] = system: HCT-116; assay: Antiproliferative activity against human HCT116 cells assessed as reduction in cell viability incubated for 72 hrs by MTT assay; type: functional, cell-based; details: HCT-116, 72 h
[5] = fCmax in BALB/c nude mouse plasma xenografted with human HCT-116 cells at 200 mg/kg, po administered twice daily for 28 days; type: ADME, organism-based; details: in vivo, 672 h, time 28 day
[6] = Half life in Sprague-Dawley rat at 200 mg/kg, po measured upto 72 hrs by LC-MS/MS analysis; type: ADME, organism-based; details: in vivo
[7] = AUC(0 to infinity) in Sprague-Dawley rat at 5 mg/kg, iv measured upto 72 hrs by LC-MS/MS analysis; type: ADME, organism-based; design: route intravenous, dose 5 mg/kg, time <=72; details: in vivo, 72 h
[8] = AUC(0 to t) in Sprague-Dawley rat at 5 mg/kg, iv measured upto 72 hrs by LC-MS/MS analysis; type: ADME, organism-based; design: route intravenous, dose 5 mg/kg, time <=72; details: in vivo
[9] = Clearance in Sprague-Dawley rat at 5 mg/kg, iv measured upto 72 hrs by LC-MS/MS analysis; type: ADME, organism-based; details: in vivo, 5 mg/kg, 72 h
[10] = Metabolic stability in mouse liver microsomes assessed as clearance at 10 uM preincubated for 5 mins followed by NADPH addition by LC-MS/MS analysis; type: ADME, Microsome; details: read-out: CLH
[11] = Distribution coefficient, logD of the compound at pH 7.4 by LC-MS based shake-flask method; type: physicochemical; details: octanol/water
[12] = Metabolic stability in human liver microsomes assessed as clearance at 10 uM preincubated for 5 mins followed by NADPH addition by LC-MS/MS analysis; type: ADME, Microsome; details: read-out: CLH
[13] = Toxicity in BALB/c nude mouse xenografted with human HCT-116 cells assessed as body weight loss at 200 mg/kg, po administered twice daily for 28 days and measured every 3 days; type: organism-based; details: in vivo, 672 h, time 28 day
[14] = Cmax in Sprague-Dawley rat at 200 mg/kg, po measured upto 72 hrs by LC-MS/MS analysis; type: ADME, organism-based; design: route oral, dose 200 mg/kg, time <=72; details: in vivo
[15] = Oral bioavailability in Sprague-Dawley rat at 200 mg/kg measured upto 72 hrs by LC-MS/MS analysis; type: ADME, organism-based; details: in vivo
[16] = Free plasma protein in mouse; type: ADME, cell-free
[17] = Cmax in BALB/c nude mouse plasma xenografted with human HCT-116 cells at 200 mg/kg, po administered twice daily for 28 days; type: ADME, organism-based; design: route oral, time 28 day, dose 200 mg/kg
[18] = AUC(0 to infinity) in Sprague-Dawley rat at 200 mg/kg, po measured upto 72 hrs by LC-MS/MS analysis; type: ADME, organism-based; design: route oral, dose 200 mg/kg, time <=72; details: Sprague-Dawley, in vivo
[19] = Metabolic stability in human liver microsomes assessed as half life at 10 uM preincubated for 5 mins followed by NADPH addition by LC-MS/MS analysis; type: ADME, Microsome
[20] = system: MDA-MB-436; assay: Antiproliferative activity against human MDA-MB-436 cells assessed as reduction in cell viability incubated for 72 hrs by MTT assay; type: functional, cell-based; details: MDA-MB-436, 72 h
[21] = Toxicity in BALB/c nude mouse xenografted with human HCT-116 cells assessed as tolerability at 200 mg/kg, po administered twice daily measured after 28 days; type: organism-based; details: in vivo, 672 h, time 28 day
[22] = Half life in Sprague-Dawley rat at 5 mg/kg, iv measured upto 72 hrs by LC-MS/MS analysis; type: ADME, organism-based; details: in vivo
[23] = Apparent volume of distribution in Sprague-Dawley rat at 5 mg/kg, iv measured upto 72 hrs by LC-MS/MS analysis; type: ADME, organism-based; details: in vivo, read-out: Vz
[24] = AUC(0 to t) in Sprague-Dawley rat at 200 mg/kg, po measured upto 72 hrs by LC-MS/MS analysis; type: ADME, organism-based; design: route oral, dose 200 mg/kg, time <=72; details: in vivo
[25] = Metabolic stability in human plasma assessed as compound remaining after 2 hrs by LC-MS/MS analysis; type: ADME, cell-free; details: read-out: Stability
[26] = Apparent volume of distribution in Sprague-Dawley rat at 200 mg/kg, po measured upto 72 hrs by LC-MS/MS analysis; type: ADME, organism-based; details: in vivo
[27] = Metabolic stability in mouse plasma assessed as compound remaining after 2 hrs by LC-MS/MS analysis; type: ADME, cell-free; details: read-out: Stability

`O=C(Cc1cccc(OC(F)(F)F)c1)Nc1ccc(CCCCc2nnc(NC(=O)Cc3ccccn3)s2)nn1` showed a CL/F [1] of 187 mL/min/kg, a TGI [2] of 45% and a half-life at 10 µM [3] of 1.05 h. The IC50 [4] was 110 nM, the fCmax [5] was 0.31 µM and the half-life [6] was 3.2 h. For the same compound, the AUC [7] was 2431 ng·h/mL, the AUC(0-t) at 72 h [8] was 2380 ng·h/mL and the CL [9] was 135 mL/min/kg. The microsomal CLint at 10 µM [10] was 12.3 µL/min/mg, the logD [11] was 2.24 and the microsomal CLint at 10 µM [12] was 9.7 µL/min/mg. For the same compound, the Activity [13] was “Non-Toxic”, the Cmax [14] was 1720 ng/mL and the bioavailability [15] was 19%. The fraction unbound [16] was 0.103, the Cmax [17] was 3.01 µM and the AUC(0-inf) [18] was 18900 ng·h/mL. For the same compound, the half-life at 10 µM [19] was 1.4 h, the IC50 [20] was 430 nM and the Activity [21] was “Non-Toxic”. For the same compound, the half-life [22] was 3.7 h, the Vd [23] was 26.1 L/kg and the AUC(0-t) at 72 h [24] was 18900 ng·h/mL. For the same compound, the remaining at 2 h [25] was 84%, the Vz [26] was 60.9 L/kg and the remaining at 2 h [27] was 72%.
